Test results from PMC11403733, “Asymmetric Dirhodium-Catalyzed Modification of Immunomodulatory Imide Drugs and Their Biological Assessment” (ACS Medicinal Chemistry Letters, 2024).

How the values were obtained:
CK1α = biological target: T1, CK1α (Homo sapiens, UniProt P48729+Q96SW2); assay: ePL degradation assay, MDS-L/CK1α ePL OE_GSPT1G575N OE cells; type: cell-based; conditions: for EC50: degradation, 4 hr incubation, top conc 10 uM, N ≥ 3, read-out: CK1a EC50; for CK1a Ymin: depth of degradation (100% = no reduction, 0% = complete degradation), 4 hr, N ≥ 3
T1 construct: expressed in transfected cells; host or cells: MDS-L
T1 sequence (P48729 whole entry): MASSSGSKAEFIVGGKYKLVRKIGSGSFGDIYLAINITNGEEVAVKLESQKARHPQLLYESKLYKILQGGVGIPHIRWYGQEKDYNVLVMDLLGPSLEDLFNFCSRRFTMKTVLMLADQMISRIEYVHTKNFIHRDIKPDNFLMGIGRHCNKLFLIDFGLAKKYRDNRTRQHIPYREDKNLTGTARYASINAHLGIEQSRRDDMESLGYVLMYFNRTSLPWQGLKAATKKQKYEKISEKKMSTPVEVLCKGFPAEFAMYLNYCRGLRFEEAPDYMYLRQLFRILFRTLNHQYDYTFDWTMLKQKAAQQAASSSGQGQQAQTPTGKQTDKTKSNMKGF
T1 sequence (Q96SW2 whole entry): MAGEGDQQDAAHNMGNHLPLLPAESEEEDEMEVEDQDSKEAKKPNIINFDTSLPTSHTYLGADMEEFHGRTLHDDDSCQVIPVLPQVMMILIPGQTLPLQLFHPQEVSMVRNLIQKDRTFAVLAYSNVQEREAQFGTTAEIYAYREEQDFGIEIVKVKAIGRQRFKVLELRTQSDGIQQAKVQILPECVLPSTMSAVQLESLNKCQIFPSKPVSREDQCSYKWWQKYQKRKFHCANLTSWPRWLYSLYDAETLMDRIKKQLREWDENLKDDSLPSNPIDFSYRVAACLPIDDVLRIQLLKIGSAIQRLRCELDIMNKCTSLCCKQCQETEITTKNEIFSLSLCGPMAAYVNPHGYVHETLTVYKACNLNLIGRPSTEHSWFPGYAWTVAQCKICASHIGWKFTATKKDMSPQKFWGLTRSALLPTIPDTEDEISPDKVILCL
T1 sequence (Q16531 whole entry partner): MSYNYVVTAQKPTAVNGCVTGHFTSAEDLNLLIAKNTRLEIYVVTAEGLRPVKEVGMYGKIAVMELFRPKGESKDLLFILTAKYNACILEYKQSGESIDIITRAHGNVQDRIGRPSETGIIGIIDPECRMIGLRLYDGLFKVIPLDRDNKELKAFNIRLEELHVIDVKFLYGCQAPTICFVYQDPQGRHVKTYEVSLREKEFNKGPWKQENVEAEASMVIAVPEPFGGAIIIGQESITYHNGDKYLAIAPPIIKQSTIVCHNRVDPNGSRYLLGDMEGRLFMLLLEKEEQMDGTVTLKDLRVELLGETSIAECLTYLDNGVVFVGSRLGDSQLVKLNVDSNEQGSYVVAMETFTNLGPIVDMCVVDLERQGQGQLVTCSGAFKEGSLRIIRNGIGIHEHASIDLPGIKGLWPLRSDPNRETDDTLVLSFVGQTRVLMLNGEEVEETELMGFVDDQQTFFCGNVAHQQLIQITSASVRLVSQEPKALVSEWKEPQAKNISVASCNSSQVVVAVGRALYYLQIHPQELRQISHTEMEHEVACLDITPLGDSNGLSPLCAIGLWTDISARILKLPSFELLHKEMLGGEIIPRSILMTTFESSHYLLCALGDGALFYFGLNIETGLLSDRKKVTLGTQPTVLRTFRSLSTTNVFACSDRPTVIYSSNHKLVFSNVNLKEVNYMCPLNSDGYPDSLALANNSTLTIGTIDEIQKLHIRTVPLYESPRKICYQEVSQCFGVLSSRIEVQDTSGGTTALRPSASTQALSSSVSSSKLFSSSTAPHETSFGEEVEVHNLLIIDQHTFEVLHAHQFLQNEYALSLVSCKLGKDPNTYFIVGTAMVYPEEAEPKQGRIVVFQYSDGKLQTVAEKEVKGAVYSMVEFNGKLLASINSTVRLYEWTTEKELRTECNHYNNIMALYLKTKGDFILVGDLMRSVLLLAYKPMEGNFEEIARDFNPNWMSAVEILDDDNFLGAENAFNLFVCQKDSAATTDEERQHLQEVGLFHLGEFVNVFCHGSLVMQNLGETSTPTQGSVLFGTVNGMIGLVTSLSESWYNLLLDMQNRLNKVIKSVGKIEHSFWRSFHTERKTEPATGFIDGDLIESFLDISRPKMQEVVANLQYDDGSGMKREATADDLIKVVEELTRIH
Method: (§1) Section 6: Assay Protocols
(§2) Fluorescence Resonance Energy Transfer-Based NSD@ PWWP Cereblon Binding Assay. […]
(§3) Compounds for testing were spotted into a 1536 well plate (Greiner Cat#782075). CRBN and Tracer solution were incubated in compound wells for 20 minutes. Detection mix containing Anti6xHis Tb Crytate (CisBio Cat#61HI2TLF) was then added to assay wells for a final 0.5x assay concentration of detection antibody (stock is provided at 400x). Plates were incubated for 30 minutes before being read on Pherastar FSX plate reader using TR-FRET module (Excitation 340nm, Emssion 615/665nm). ePL and HiBiT degradation assays
(§4) DF15 cells overexpressing ePL tagged GSPT1 (DF15/GSPT1 ePL OE) was used to monitor the degradation of GSPT1 induced by experimental compounds. MDS-L cells overexpressing ePL tagged CK1α and GSPT1G575N (MDS-L/CK1α ePL OE_ GSPT1G575N OE) was used to monitor the degradation of CK1α induced by experimental compounds. NCCIT cells with HiBiT tag knocked in at the c-terminus of SALL4 (NCCIT/SALL4-HiBiT KI) was used to monitor the degradation of SALL4 induced by experimental compounds. DF15 cells with HiBiT tag knocked in at the n-terminus of IKZF3 (DF15/HiBiT-IKZF3 KI) was used to monitor the degradation of AIOLOS (IKZF3) induced by experimental compounds. […]
(§5) The cell culture medium recipes, seeding densities and compound incubation time with cells are […]
(§6) Ta r g e t Cell line Cell culture medium Seeding Compound
(§7) (HI) FBS, 1mM sodium pyruvate, 25mM Hepes, 0.1% pluronic acid,
(§8) GSPT1G575N OE ng/mL of human recombinant IL3 […]
(§9) sodium pyruvate, 25mM Hepes, 0.1% pluronic acid, 1X NEAA
(§10) For all degradation assays, compounds were pre-spotted in a 153 6 well plate (Corning 3727) starting at 10uM with 3-fold serial dilution down 11 points in replicates using an Echo 650 series acoustic liquid handler. 5uL/well cells were seeded in the assay ready plate at the density and in […]
(§11) The final DMSO concentration in the cell culture was 0.25%. The plates were equilibrated at room temperature for 30 minutes before putting into a 37 °C CO2 incubator. After appropriate incubation period, plates were retrieved from the incubator and set at room temperature to equilibrate for 30 minutes, before adding ePL or HiBiT detection reagent. For ePL detection, the pre-prepared mixture of EA reagent, lysis buffer, and substrate reagent at ratio 1:1:4 from the DiscoverX InCELL Detection Kit (Eurofins 96-0079L) according to the manufacturer ’s recommendation was added 3ul/well into the plate. Plates were incubated in the dark for 1hr at room temperature before reading using a BMG PheraStar luminescence reader. For HiBiT detection, Nano-Glo HiBiT Lytic Reagent (Promega, N3050) prepared according to the manufacturer ’s recommendation was added 3 uL/well into the plate. Plates were incubated 30 minutes at room temperature in the dark before reading using a BMG PheraStar […]
(§12) To determine EC50 values for degradation, a four parameter logistic model (Sigmoidal Dose-Response Model) (FIT= (A+((B-A)/1+((C/x)^D)))) C is the inflection point (EC50), D is […] , A and B are the low and high limits of the fit respectively) was used to determine the compound’s EC50 value, which is the half maximum effective concentration. In the degradation assays, the Yconst of each compound was calculated by normalizing the lowest point of the fitted curve to the media only control, which is 0%, and the cells treated with DMSO control, which is 100%. All degradation curves were processed and evaluated using Dotmatics.
(§13) Section 7: Biological Data Tables

CRBN = biological target: T2, CRBN (Homo sapiens, UniProt Q96SW2); assay: Fluorescence Resonance Energy Transfer-Based Cereblon Binding Assay (CRBN HTRF); conditions: 0.5 nM 6×His-CRBN-DDB1, 20 nM tracer CC0782985, TR-FRET
T2 construct: (CRBN a.a. 1−442, DDB1 a.a); made in house
T2 sequence (Q96SW2 whole entry): as the sequence (Q96SW2 whole entry) above
T2 sequence (Q16531 whole entry partner): as the sequence (Q16531 whole entry partner) above
Method: as §1, §2, §3, §4

IKZF3 (Aiolos) = biological target: T3, IKZF3 (Aiolos) (Homo sapiens, UniProt Q96SW2+Q9UKT9); assay: HiBiT degradation assay, DF15/HiBiT-IKZF3 KI cells; type: cell-based; conditions: N ≥ 3; for EC50: degradation, 4 hr incubation, top conc 10 uM; for IKZF3 Ymin: depth of degradation (100% = no reduction of protein level, 0% = complete degradation), 4 hr
T3 construct: endogenous in cells; host or cells: DF15 (HiBiT knock-in)
T3 sequence (Q9UKT9 whole entry): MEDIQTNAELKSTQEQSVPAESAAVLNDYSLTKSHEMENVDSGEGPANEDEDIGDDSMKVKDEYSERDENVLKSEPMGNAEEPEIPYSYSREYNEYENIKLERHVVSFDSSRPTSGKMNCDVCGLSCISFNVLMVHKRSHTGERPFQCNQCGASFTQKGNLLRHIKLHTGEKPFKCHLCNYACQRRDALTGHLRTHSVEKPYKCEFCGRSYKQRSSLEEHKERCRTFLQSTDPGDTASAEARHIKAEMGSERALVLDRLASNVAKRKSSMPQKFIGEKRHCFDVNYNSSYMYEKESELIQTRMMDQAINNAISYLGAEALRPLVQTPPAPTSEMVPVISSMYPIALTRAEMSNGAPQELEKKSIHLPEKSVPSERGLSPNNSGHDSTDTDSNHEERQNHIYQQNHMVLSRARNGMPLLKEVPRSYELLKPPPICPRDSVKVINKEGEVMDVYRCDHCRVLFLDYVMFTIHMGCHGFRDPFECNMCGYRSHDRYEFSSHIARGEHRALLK
T3 sequence (Q96SW2 whole entry): as the sequence (Q96SW2 whole entry) above
T3 sequence (Q16531 whole entry partner): as the sequence (Q16531 whole entry partner) above
Method: as §1, §2, §3, §4, §5, §6, §7, §8, §9, §10, §11, §12, §13

GSPT1 = biological target: T4, GSPT1 (Homo sapiens, UniProt P15170+Q96SW2); assay: ePL degradation assay, DF15/GSPT1 ePL OE cells; type: cell-based; conditions: N ≥ 3; for EC50: degradation, 20 hr incubation, top conc 10 uM; for GSPT1 Ymin: depth of degradation (100% = no reduction, 0% = complete degradation), 20 hr
T4 construct: expressed in transfected cells; host or cells: DF15
T4 sequence (P15170 1-637 isoform P15170-3): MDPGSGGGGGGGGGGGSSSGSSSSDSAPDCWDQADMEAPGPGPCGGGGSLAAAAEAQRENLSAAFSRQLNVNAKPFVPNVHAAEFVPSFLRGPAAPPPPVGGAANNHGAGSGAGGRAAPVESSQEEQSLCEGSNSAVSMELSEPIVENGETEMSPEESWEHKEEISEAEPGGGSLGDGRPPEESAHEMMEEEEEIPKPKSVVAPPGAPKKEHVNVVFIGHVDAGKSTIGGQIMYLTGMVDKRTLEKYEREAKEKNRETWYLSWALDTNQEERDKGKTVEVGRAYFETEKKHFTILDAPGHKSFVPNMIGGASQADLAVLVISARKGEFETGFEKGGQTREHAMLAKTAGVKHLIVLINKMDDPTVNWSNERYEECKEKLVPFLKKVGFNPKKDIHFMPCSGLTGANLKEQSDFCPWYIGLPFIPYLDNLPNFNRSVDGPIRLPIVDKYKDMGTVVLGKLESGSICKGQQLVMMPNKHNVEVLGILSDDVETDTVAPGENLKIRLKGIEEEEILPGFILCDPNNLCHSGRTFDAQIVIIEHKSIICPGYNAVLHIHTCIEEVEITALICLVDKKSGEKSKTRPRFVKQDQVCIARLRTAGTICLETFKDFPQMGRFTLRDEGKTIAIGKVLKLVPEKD
T4 sequence (Q96SW2 whole entry): as the sequence (Q96SW2 whole entry) above
T4 sequence (Q16531 whole entry partner): as the sequence (Q16531 whole entry partner) above
Method: as §1, §2, §3, §4, §5, §6, §7, §8, §9, §10, §11, §12, §13

SALL4 = biological target: T5, SALL4 (Homo sapiens, UniProt Q96SW2+Q9UJQ4); assay: HiBiT degradation assay, NCCIT/SALL4-HiBiT KI cells; type: cell-based; conditions: N ≥ 3; for EC50: degradation, 2 hr incubation, top conc 10 uM; for SALL4 Ymin: depth of degradation (100% = no reduction, 0% = complete degradation), 2 hr
T5 construct: endogenous in cells; host or cells: NCCIT (HiBiT knock-in)
T5 sequence (Q9UJQ4 whole entry): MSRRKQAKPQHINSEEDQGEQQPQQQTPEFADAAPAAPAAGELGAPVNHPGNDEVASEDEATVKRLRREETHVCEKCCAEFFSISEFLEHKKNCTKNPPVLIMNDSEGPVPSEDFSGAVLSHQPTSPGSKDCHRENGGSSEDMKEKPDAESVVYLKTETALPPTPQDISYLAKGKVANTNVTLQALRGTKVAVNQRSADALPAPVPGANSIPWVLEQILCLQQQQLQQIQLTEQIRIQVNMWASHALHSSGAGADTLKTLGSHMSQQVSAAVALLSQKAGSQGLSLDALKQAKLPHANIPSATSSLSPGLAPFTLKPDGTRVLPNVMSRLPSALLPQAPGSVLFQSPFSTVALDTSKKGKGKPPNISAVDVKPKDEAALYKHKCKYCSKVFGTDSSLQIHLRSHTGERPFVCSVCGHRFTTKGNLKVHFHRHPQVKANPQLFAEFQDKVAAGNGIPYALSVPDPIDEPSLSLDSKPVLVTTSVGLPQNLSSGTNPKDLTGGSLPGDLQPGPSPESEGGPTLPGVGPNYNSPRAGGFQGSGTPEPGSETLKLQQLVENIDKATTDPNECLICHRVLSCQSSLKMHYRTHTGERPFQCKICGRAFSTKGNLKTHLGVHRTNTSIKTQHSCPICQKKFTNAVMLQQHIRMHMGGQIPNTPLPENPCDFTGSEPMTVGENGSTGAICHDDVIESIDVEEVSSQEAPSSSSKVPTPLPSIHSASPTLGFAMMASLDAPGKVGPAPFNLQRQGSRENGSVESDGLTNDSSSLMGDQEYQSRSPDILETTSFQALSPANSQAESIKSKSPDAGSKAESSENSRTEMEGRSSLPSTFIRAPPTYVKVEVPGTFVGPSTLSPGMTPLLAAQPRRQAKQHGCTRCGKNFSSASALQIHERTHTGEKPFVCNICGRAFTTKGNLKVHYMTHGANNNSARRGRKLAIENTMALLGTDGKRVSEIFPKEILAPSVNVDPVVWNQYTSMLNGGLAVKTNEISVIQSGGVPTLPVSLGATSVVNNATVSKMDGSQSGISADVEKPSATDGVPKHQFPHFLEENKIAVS
T5 sequence (Q96SW2 whole entry): as the sequence (Q96SW2 whole entry) above
T5 sequence (Q16531 whole entry partner): as the sequence (Q16531 whole entry partner) above
Method: as §1, §2, §3, §4, §5, §6, §7, §8, §9, §10, §11, §12, §13

## O=C1CCC(N2Cc3cc(C4=C[C@]4(C(=O)OCC(Cl)(Cl)Cl)c4ccc(Br)cc4)ccc3C2=O)C(=O)N1 (some centres unmarked) [Compound 21a]
CK1α
  EC50: > 10 µM
  CK1a Ymin: 89 ± 9.3%
CRBN
  IC50: 0.59 µM
IKZF3 (Aiolos)
  EC50: > 10 µM
  IKZF3 Ymin: 95 ± 7.6%
GSPT1
  EC50: > 10 µM
  GSPT1 Ymin: 81 ± 17%
SALL4
  EC50: > 10 µM
  SALL4 Ymin: 89 ± 4.2%

## O=C1CCC(N2Cc3cc(C4=C[C@@]4(C(=O)OCC(Cl)(Cl)Cl)c4ccc(Br)cc4)ccc3C2=O)C(=O)N1 (some centres unmarked) [Compound 21b]
CK1α
  EC50: 0.25 ± 0.37 µM
  CK1a Ymin: 57 ± 8.0%
CRBN
  IC50: 0.8 µM
IKZF3 (Aiolos)
  EC50: 4.8 ± 2.6 µM
  IKZF3 Ymin: 79 ± 6.4%
GSPT1
  EC50: 3.3 ± 3 µM
  GSPT1 Ymin: 7.7 ± 4.7%
SALL4
  EC50: 0.075 ± 0.05 µM
  SALL4 Ymin: 68 ± 2.1%

## O=C1CCC(N2C(=O)c3ccc(C4=C[C@]4(C(=O)OCC(Cl)(Cl)Cl)c4ccc(Br)cc4)cc3C2=O)C(=O)N1 (some centres unmarked) [Compound 22a]
CK1α
  EC50: 1.2 ± 1.2 µM
  CK1a Ymin: 60 ± 26%
CRBN
  IC50: 5.7 µM
IKZF3 (Aiolos)
  EC50: 1.3 ± 2.1 µM
  IKZF3 Ymin: 73 ± 6.2%
GSPT1
  EC50: 1.1 ± 0.69 µM
SALL4
  EC50: 3.6 ± 0.74 µM
  SALL4 Ymin: 67 ± 7.8%

## O=C1CCC(N2Cc3ccc(C4=C[C@]4(C(=O)OCC(Cl)(Cl)Cl)c4ccc(Br)cc4)cc3C2=O)C(=O)N1 (some centres unmarked) [Compound 23a]
CK1α
  EC50: > 10 µM
  CK1a Ymin: 93 ± 10%
CRBN
  IC50: 0.98 µM
IKZF3 (Aiolos)
  EC50: > 10 µM
  IKZF3 Ymin: 94 ± 2.3%
GSPT1
  EC50: > 10 µM
  GSPT1 Ymin: 82 ± 7.1%
SALL4
  EC50: > 10 µM
  SALL4 Ymin: 95 ± 6.5%

## O=C1CCC(N2Cc3ccc(C4=C[C@@]4(C(=O)OCC(Cl)(Cl)Cl)c4ccc(Br)cc4)cc3C2=O)C(=O)N1 (some centres unmarked) [Compound 23b]
CK1α
  EC50: > 10 µM
  CK1a Ymin: 95 ± 6.0%
CRBN
  IC50: 1.7 µM
IKZF3 (Aiolos)
  EC50: > 10 µM
  IKZF3 Ymin: 81 ± 4.6%
GSPT1
  EC50: > 10 µM
  GSPT1 Ymin: 88 ± 10%
SALL4
  EC50: > 10 µM
  SALL4 Ymin: 91 ± 10%

## O=C1CCC(N2Cc3cccc(C4=C[C@]4(C(=O)OCC(Cl)(Cl)Cl)c4ccc(Br)cc4)c3C2=O)C(=O)N1 (some centres unmarked) [Compound 24a]
CK1α
  EC50: > 10 µM
  CK1a Ymin: 96 ± 12%
CRBN
  IC50: 2.4 µM
IKZF3 (Aiolos)
  EC50: > 10 µM
  IKZF3 Ymin: 97 ± 0.58%
GSPT1
  EC50: > 10 µM
  GSPT1 Ymin: 85 ± 24%
SALL4
  EC50: > 10 µM
  SALL4 Ymin: 95 ± 5.0%

## O=C1CCC(N2Cc3cccc(C4=C[C@@]4(C(=O)OCC(Cl)(Cl)Cl)c4ccc(Br)cc4)c3C2=O)C(=O)N1 (some centres unmarked) [Compound 24b]
CK1α
  EC50: > 10 µM
  CK1a Ymin: 93 ± 6.8%
CRBN
  IC50: 2.9 µM
IKZF3 (Aiolos)
  EC50: > 10 µM
  IKZF3 Ymin: 93 ± 2.5%
GSPT1
  EC50: > 10 µM
  GSPT1 Ymin: 80 ± 4.3%
SALL4
  EC50: > 10 µM
  SALL4 Ymin: 97 ± 5.2%
